Measured values reported in patent US4111955A, “N-Trihalomethanesulfenyl carbamoyloximino di-sulfur heterocyclic compounds” (priority 1976, dated 1978).
In brackets after ≈: the same amount, converted by molar mass.

Tests used:
[1] = Peroral toxicity to mammals (rat); format: in vivo; details: in vivo, po; rat, peroral, Table II; read-out: Rat P.O. LD50
Experimental: Certain of these compositions were also evaluated to determine their peroral toxicity to mammals. The animal selected for this experiment was the rat. The test results obtained are expressed in terms of the number of milligrams of composition per kilogram of weight of the animal required to achieve a mortality rate of 50 percent (LD50).

mites = assay: Systemic miticidal activity (soil drench of infested bean plants); format: in vivo, Tetranychus urticae Koch; details: Tetranychus urticae; systemic, soil drench, value in parentheses, Table II; read-out: Insect Toxicity, LD50, Mite, systemic activity
Experimental: (§1) Adults and nymphal stages of the two-spotted mite (Tetranychus urticae Koch), reared on Tendergreen bean plants at 80±5 percent relative humidity, were the test organisms. Infested leaves from a stock culture were placed on the primary leaves of two bean plants 6 to 8 inches in height, growing in a 21/2 inch clay pot. 150-200 Mites, a sufficient number for testing, transferred from the excised leaves to the fresh plants in a period of 24 hours. Following the 24 hour transfer period, the excised leaves were removed from the infested plants. The test compounds were formulated by diluting the stock suspension with water to give a suspension containing 500 parts of test compound per million parts of final formulation. The potted plants (one pot per compound) were placed on a revolving turntable and sprayed with 100-110 milliliters of test compound formulation by use of a DeVilbiss spray gun set at 40 psig. air pressure. This application, which lasted 25 seconds, was sufficient to wet the plants to run-off. As a control, 100-110 milliliters of a water solution containing acetone and emulsifier in the same concentrations as the test compound formulation, but containing no test compound, were also sprayed on infested plants. The sprayed plants were held at 80±5 percent relative humidity for 6 days, after which a mortality count of motile forms was made. Microscopic examination for motile forms was made on the leaves of the test plants. Any individual which was capable of locomotion upon prodding was considered living.
(§2) The LD50 values shown in the above Table II were determined by testing the compositions over an appropriate concentration range obtained by serial dilution of the stock suspension with water. The percent kill was plotted on log-probit graph paper versus parts per million concentration, and the LD50 read from an eye-fitted line drawn through the resultant points.
Systemic treatments were made by drenching 20 milliliters of the test compound formulation into the soil around the roots of bean plants growing in 21/2 inch clay pots. […]

[2] = test system: two-spotted mite (Tetranychus urticae Koch); assay: Mite Foliage Spray Test; format: in vivo; parameters: key to pesticidal activity rating, Mite: A: excellent control; B: partial control; C: no control
Experimental: as §1
(§3) In these tests the pesticidal activity of the compounds against aphid, mite, Southern Armyworm, Bean Beetle and House fly was rated as follows:
as §2

[3] = test system: house flies (Musca domestica, L.); assay: Fly Bait Test; format: in vivo; parameters: key to pesticidal activity rating, Housefly: A: excellent control; B: partial control; C: no control
Experimental: Four to 6 day old adult house flies (Musca domestica, L.), reared according to the specifications of the Chemical Specialities Manufacturing Association (Blue Book, McNair-Dorland Co., N.Y. 1954; pages 243-244, 261) under controlled conditions of 80°±5° F. and 50±5 percent relative humidity, were the test insects. The flies were immobilized by anesthetizing with carbon dioxide and twenty five immobilized individuals, males and females, were transferred to a cage consisting of a standard food strainer about 5 inches in diameter which was inverted over a wrapping-paper-covered surface. The test compounds were formulated by diluting the stock suspension with a 10 percent (by weight) sugar solution to give a suspension containing 500 parts of test compound per million parts of final formulation, by weight. Ten milliliters of the test formulation were added to a souffle cup containing a 1-inch square of an absorbent cotton pad. This bait cup was introduced and centered on the blotting paper under the food strainer prior to admitting the anesthetized flies. The caged flies were allowed to feed on the bait for 24 hours, at a temperature of 80°±5° F. and the relative humidity of 50±5 percent.
as §3, §2

[4] = test system: southern armyworm (Prodenia eridania, (Cram.)); assay: Southern Armyworm Leaf Spray Test; format: in vivo; parameters: key to pesticidal activity rating, Armyworm: A: excellent control; B: partial control; C: no control
Experimental: Larvae of the southern armyworm (Prodenia eridania, (Cram.)), reared on Tendergreen bean plants at a temperature of 80°±5° F. and a relative humidity of 50±5 percent, constituted the test insects.
The test compounds were formulated by diluting the stock suspension with water to give a suspension containing 500 parts of test compound per million parts of final formulation. Potted Tendergreen bean plants of standard height and age were placed on a revolving turntable and sprayed with 100-110 milliliters of test compound formulation by use of a DeVilbiss spray gun set at 10 psig air pressure. This application, which lasted 25 seconds, was sufficient to wet plants to run-off. As a control, 100-110 milliliters of a water-acetone-emulsifier solution containing no test compound were also sprayed on infested plants. When dry, the paired leaves were separated and each one was placed in a 9 centimeter Petri dish lined with moistened filter paper. Five randomly selected larvae were introduced into each dish and the dishes were closed. The closed dishes were labeled and held at 80°-85° F. for 3 days. Although the larvae could easily consume the whole leaf within 24 hours, no more food was added. Larvae which were unable to move the length of the body, even upon stimulation by prodding, were considered dead. Percent mortality was recorded for various concentration levels.
as §3, §2

[5] = test system: bean aphid (Aphis fabae Scop.); assay: Bean Aphid Foliage Spray Test; format: in vivo; parameters: key to pesticidal activity rating, Aphid: A: excellent control; B: partial control; C: no control
Experimental: Adults and nymphal stages of the bean aphid (Aphis fabae Scop.) reared on potted dwarf nasturtium plants at 65°-70° F. and 50-70 percent relative humidity, constituted the test insects. For testing purposes, the number of aphids per pot was standardized to 100-150 by trimming plants containing excess aphids.
The test compounds were formulated by diluting the stock suspension with water to give a suspension containing 500 parts of test compound per million parts of final formulation.
The potted plants (one pot per compound tested) infested with 100-150 aphids, were placed on a revolving turntable and sprayed with 100-110 milliliters of test compound formulation by use of a DeVilbiss spray gun set at 40 psig. air pressure. This application, which lasted 25 seconds, was sufficient to wet the plants to run-off. As a control, 100-110 milliliters of a water-acetone-emulsifier solution containing no test compound were also sprayed on infested plants. After spraying, the pots were placed on their sides on a sheet of white standard mimeograph paper which had been previously ruled to facilitate counting. Temperature and humidity in the test room during the 24 hour holding period were 65°-70° F. and 50-70 percent, respectively. Aphids which fell onto the paper and were unable to remain standing after being uprighted were considered dead. Aphids remaining on the plants were observed closely for movement and those which were unable to move the length of the body upon stimulation by prodding were considered dead. Percent mortality was recorded for various concentration levels.
as §3, §2

[6] = test system: Mexican bean beetle (Epilachna varivestis, Muls.); assay: Mexican Bean Beetle Leaf Spray Test; format: in vivo; parameters: key to pesticidal activity rating, Bean beetle: A: excellent control; B: partial control; C: no control; details: leaf spray
Experimental: Fourth instar larvae of the Mexican bean beetle (Epilachna varivestis, Muls.), reared on Tendergreen bean plants at a temperature of 80°±5° F. and 50±5 percent relative humidity, were the test insects.
The test compounds were formulated by diluting the stock suspension with water to give a suspension containing 500 parts of test compound per million parts of final formulation. Potted Tendergreen bean plants of standard height and age were placed on a revolving turntable and sprayed with 100-110 milliliters of test compound formulation by use of a DeVilbiss spray gun set at 10 psig air pressure. This application, which lasted 25 seconds, was sufficient to wet plants to run-off. As a control, 100-110 milliliters of a water-acetone-emulsifier solution containing no test compound were also sprayed on infested plants. When dry, the paired leaves were separated and each was placed in a 9 centimeter Petri dish lined with moistened filter paper. Five randomly selected larvae were introduced into each dish, and the dishes were closed. The closed dishes were labeled and held at a temperature of 80°±5° F. for 3 days. Although the larvae could easily consume the leaf within 24 to 48 hours, no more food was added. Larvae which were unable to move the length of the body, even upon stimulation, were considered dead.
as §3, §2

With `CNC(=O)ON=C1CSCCS1` [drawing 3 --NHCH3, reference compound] the LD50 [1] was 15 mg/kg, the LC50 (mites) was 12 µg/mL (≈ 58.2 µM) and the “pesticidal activity rating, Mite” value ([2]; 500 parts per million, 6 days) was “A”. For the same compound, the LC50 ([2]; Tetranychus urticae, foliar, Table II, read-out: Insect Toxicity, LD50, Mite) was 6 µg/mL (≈ 29.1 µM), the “pesticidal activity rating, Housefly” value ([3]; 500 parts per million, 24 hours) was “A” and the LC50 ([3]; Musca domestica, 24 h, Table II, read-out: Insect Toxicity, LD50, House fly) was 1 µg/mL (≈ 4.85 µM). For the same compound, the “pesticidal activity rating, Armyworm” value ([4]; 500 parts per million, 3 days) was “A”, the LC50 ([4]; Spodoptera eridania, 72 h, Table II, read-out: Insect Toxicity, LD50, Armyworm) was 53 µg/mL (≈ 257 µM) and the “pesticidal activity rating, Aphid” value ([5]; 500 parts per million, 24 hour) was “A”. The LC50 ([5]; Aphis fabae, foliar, 24 h, Table II, read-out: Insect Toxicity, LD50, Aphid) was 5 µg/mL (≈ 24.2 µM), the LC50 ([6]; Epilachna varivestis, 72 h, Table II, read-out: Insect Toxicity, LD50, Mexican Bean beetle) was 52 µg/mL (≈ 252 µM) and the “pesticidal activity rating, Bean beetle” value ([6]; 500 parts per million, 3 days) was “A”.
